# Results: patent US12473304B2, “Heterocyclic PAD4 inhibitors” (BRISTOL-MYERS SQUIBB COMPANY, priority 2020, dated 2025)
# Target: human PAD4 (hPAD4) (Homo sapiens (Human), UniProt Q9UM07)
# Test: RFMS Human PAD4 Functional Assay 1
# Type: biochemical
# Conditions: RFMS assay 1; 5 nM hPAD4, 250 μM BAEE substrate, 50 μM calcium, 37° C.
# Summary of the method: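 Recombinant hPAD4 (5 nM) was preincubated with compound (top 50 μM, 0.5% DMSO) for 30 min at 37 °C, then reacted with 250 μM BAEE for 90 min at 37 °C in pH 7.5 HEPES buffer with 50 μM calcium and 5 μM TPEN. Product was derivatized with phenyl glyoxal and quantified by RapidFire MS.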
# human PAD4 (hPAD4), sequence (Q9UM07 whole entry): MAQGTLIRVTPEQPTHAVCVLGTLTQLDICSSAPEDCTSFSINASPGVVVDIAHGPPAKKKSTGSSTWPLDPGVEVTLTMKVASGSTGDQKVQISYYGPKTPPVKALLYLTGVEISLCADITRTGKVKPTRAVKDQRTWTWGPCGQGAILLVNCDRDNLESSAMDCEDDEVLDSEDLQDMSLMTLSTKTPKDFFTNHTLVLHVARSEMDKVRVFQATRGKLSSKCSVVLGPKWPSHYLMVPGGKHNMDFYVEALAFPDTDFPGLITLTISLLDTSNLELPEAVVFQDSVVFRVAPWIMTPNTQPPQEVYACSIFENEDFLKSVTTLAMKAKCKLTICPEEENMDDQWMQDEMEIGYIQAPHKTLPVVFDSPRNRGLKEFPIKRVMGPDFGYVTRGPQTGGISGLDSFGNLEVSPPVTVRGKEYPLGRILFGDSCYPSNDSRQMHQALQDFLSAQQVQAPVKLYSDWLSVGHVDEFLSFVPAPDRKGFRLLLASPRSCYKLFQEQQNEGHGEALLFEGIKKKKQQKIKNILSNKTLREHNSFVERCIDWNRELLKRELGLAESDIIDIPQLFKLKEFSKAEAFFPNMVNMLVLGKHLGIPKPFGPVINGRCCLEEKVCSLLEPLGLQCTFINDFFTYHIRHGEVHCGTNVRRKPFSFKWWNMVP
row,Compound,IC50
1,"COc1cc(C(=O)N2C[C@H](N)C[C@@H](F)C2)cn2nc(-c3cc4ccc(-c5ccc6c(cnn6C)c5)cc4n3CC3CC3)c(C)c12 [Example 219, (3R,5R)-1-{2-[1-(Cyclopropylmethyl)-6-(1-methyl-1H-indazol-5-yl)-1H-indol-2-yl]-4-methoxy-3-methylpyrazolo[1,5-a]pyridine-6-carbonyl}-5-fluoropiperidin-3-amine]",460 nM
2,"COc1cc(C(=O)N2C[C@H](N)C[C@@H](F)C2)cn2nc(-c3cc4ccc(-c5cccc(-c6nn[nH]n6)c5)cc4n3CC3CC3)c(C)c12 [Example 220, (3R,5R)-1-{2-[1-(Cyclopropylmethyl)-6-[3-(2H-1,2,3,4-tetrazol-5-yl)phenyl]-1H-indol-2-yl]-4-methoxy-3-methylpyrazolo[1,5-a]pyridine-6-carbonyl}-5-fluoropiperidin-3-amine]",4340 nM
3,"COc1cc(C(=O)N2C[C@H](N)C[C@@H](F)C2)cn2nc(-c3cc4ccc(-c5ccc(CNC(C)=O)cc5)cc4n3CC3CC3)c(C)c12 [Example 221, N-{[4-(2-{6-[(3R,5R)-3-Amino-5-fluoropiperidine-1-carbonyl]-4-methoxy-3-methylpyrazolo[1,5-a]pyridin-2-yl}-1-(cyclopropylmethyl)-1H-indol-6-yl)phenyl]methyl}acetamide]",510 nM
4,"COc1cc(C(=O)N2C[C@H](N)C[C@@H](F)C2)cn2nc(-c3cc4ccc(-c5cccc6[nH]ncc56)cc4n3CC3CC3)c(C)c12 [Example 222, (3R,5R)-1-{2-[1-(Cyclopropylmethyl)-6-(1H-indazol-4-yl)-1H-indol-2-yl]-4-methoxy-3-methylpyrazolo[1,5-a]pyridine-6-carbonyl}-5-fluoropiperidin-3-amine]",1010 nM
5,"COc1cc(C(=O)N2C[C@H](N)C[C@@H](F)C2)cn2nc(-c3cc4ccc(-c5ccccc5C(N)=O)cc4n3CC3CC3)c(C)c12 [Example 223, 2-(2-{6-[(3R,5R)-3-Amino-5-fluoropiperidine-1-carbonyl]-4-methoxy-3-methylpyrazolo[1,5-a]pyridin-2-yl}-1-(cyclopropylmethyl)-1H-indol-6-yl)benzamide]",130 nM
6,"COc1cc(C(=O)N2C[C@H](N)C[C@@H](F)C2)cn2nc(-c3cc4ccc(-c5ccc(CNS(C)(=O)=O)cc5)cc4n3CC3CC3)c(C)c12 [Example 224, N-{[4-(2-{6-[(3R,5R)-3-Amino-5-fluoropiperidine-1-carbonyl]-4-methoxy-3-methylpyrazolo[1,5-a]pyridin-2-yl}-1-(cyclopropylmethyl)-1H-indol-6-yl)phenyl]methyl}methanesulfonamide]",1070 nM
7,"COc1cc(C(=O)N2CCC[C@@H](N)C2)cn2nc(-c3cc4ccc(-c5cccc(CO)c5)cc4n3CC3CC3)c(C)c12 [Example 227, [3-(2-{6-[(3R)-3-Aminopiperidine-1-carbonyl]-4-methoxy-3-methylpyrazolo[1,5-a]pyridin-2-yl}-1-(cyclopropylmethyl)-1H-indol-6-yl)phenyl]methanol]",950 nM
8,"COc1cc(C(=O)N2CCC[C@@H](N)C2)cn2nc(-c3cc4ccc(-c5ccc(C(N)=O)cc5)cc4n3CC3CC3)c(C)c12 [Example 229, 4-(2-{6-[(3R)-3-Aminopiperidine-1-carbonyl]-4-methoxy-3-methylpyrazolo[1,5-a]pyridin-2-yl}-1-(cyclopropylmethyl)-1H-indol-6-yl)benzamide]",130 nM
9,"COc1cc(C(=O)N2CCC[C@@H](N)C2)cn2nc(-c3cc4ccc(-c5ccc(C(=O)N(C)C)cc5)cc4n3CC3CC3)c(C)c12 [Example 230, 4-(2-{6-[(3R)-3-Aminopiperidine-1-carbonyl]-4-methoxy-3-methylpyrazolo[1,5-a]pyridin-2-yl}-1-(cyclopropylmethyl)-1H-indol-6-yl)-N,N-dimethylbenzamide]",320 nM
10,"COc1cc(C(=O)N2CCC[C@@H](N)C2)cn2nc(-c3cc4ccc(-c5ccc(NS(C)(=O)=O)cc5)cc4n3CC3CC3)c(C)c12 [Example 231, N-[4-(2-{6-[(3R)-3-Aminopiperidine-1-carbonyl]-4-methoxy-3-methylpyrazolo[1,5-a]pyridin-2-yl}-1-(cyclopropylmethyl)-1H-indol-6-yl)phenyl]methanesulfonamide]",460 nM
11,"COc1cc(C(=O)N2CCC[C@@H](N)C2)cn2nc(-c3cc4ccc(-c5ccccc5CO)cc4n3CC3CC3)c(C)c12 [Example 233, [2-(2-{6-[(3R)-3-Aminopiperidine-1-carbonyl]-4-methoxy-3-methylpyrazolo[1,5-a]pyridin-2-yl}-1-(cyclopropylmethyl)-1H-indol-6-yl)phenyl]methanol]",620 nM
12,"COc1cc(C(=O)N2CCC[C@@H](N)C2)cn2nc(-c3cc4ccc(-c5cccc(CNS(C)(=O)=O)c5)cc4n3CC3CC3)c(C)c12 [Example 235, N-{[3-(2-{6-[(3R)-3-Aminopiperidine-1-carbonyl]-4-methoxy-3-methylpyrazolo[1,5-a]pyridin-2-yl}-1-(cyclopropylmethyl)-1H-indol-6-yl)phenyl]methyl}methanesulfonamide]",250 nM
13,"COc1cc(C(=O)N2CCC[C@@H](N)C2)cn2nc(-c3cc4ccc(-c5cc(F)c6[nH]c(=O)ccc6c5C)cc4n3CC3CC3)c(C)c12 [Example 239, 6-(2-{6-[(3R)-3-Aminopiperidine-1-carbonyl]-4-methoxy-3-methylpyrazolo[1,5-a]pyridin-2-yl}-1-(cyclopropylmethyl)-1H-indol-6-yl)-8-fluoro-5-methyl-1,2-dihydroquinolin-2-one]",70 nM
14,"COc1cc(C(=O)N2CCC[C@@H](N)C2)cn2nc(-c3cc4ccc(-c5ccc(NC(C)=O)nc5)cc4n3CC3CC3)c(C)c12 [Example 240, N-[5-(2-{6-[(3R)-3-Aminopiperidine-1-carbonyl]-4-methoxy-3-methylpyrazolo[1,5-a]pyridin-2-yl}-1-(cyclopropylmethyl)-1H-indol-6-yl)pyridin-2-yl]acetamide]",180 nM
15,"COc1cc(C(=O)N2C[C@H](N)C[C@@H](F)C2)cn2nc(-c3cc4ccc(N5CCC(C(=O)N(C)C)CC5)cc4n3CC3CC3)c(C)c12 [Example 242, 1-(2-{6-[(3R,5R)-3-Amino-5-fluoropiperidine-1-carbonyl]-4-methoxy-3-methylpyrazolo[1,5-a]pyridin-2-yl}-1-(cyclopropylmethyl)-1H-indol-6-yl)-N,N-dimethylpiperidine-4-carboxamide]",90 nM

# The remaining compounds from weak to strong by IC50, led by results:
row,IC50,Compound
1,4120 nM,"COc1cc(C(=O)N2C[C@H](N)C[C@@H](F)C2)cn2nc(-c3cc4ccc(N5CCC(N(C)C(C)=O)CC5)cc4n3CC3CC3)c(C)c12 [Example 243, N-[1-(2-{6-[(3R,5R)-3-Amino-5-fluoropiperidine-1-carbonyl]-4-methoxy-3-methylpyrazolo[1,5-a]pyridin-2-yl}-1-(cyclopropylmethyl)-1H-indol-6-yl)piperidin-4-yl]-N-methylacetamide]"
2,1140 nM,"COc1cc(C(=O)N2CCC[C@@H](N)C2)cn2nc(-c3cc4ccc(-c5ccc(CNS(C)(=O)=O)cc5)cc4n3CC3CC3)c(C)c12 [Example 234, N-{[4-(2-{6-[(3R)-3-Aminopiperidine-1-carbonyl]-4-methoxy-3-methylpyrazolo[1,5-a]pyridin-2-yl}-1-(cyclopropylmethyl)-1H-indol-6-yl)phenyl]methyl}methanesulfonamide]"
3,930 nM,"COc1cc(C(=O)N2CCC[C@@H](N)C2)cn2nc(-c3cc4ccc(-c5ccc(CNC(C)=O)cc5)cc4n3CC3CC3)c(C)c12 [Example 228, N-{[4-(2-{6-[(3R)-3-Aminopiperidine-1-carbonyl]-4-methoxy-3-methylpyrazolo[1,5-a]pyridin-2-yl}-1-(cyclopropylmethyl)-1H-indol-6-yl)phenyl]methyl}acetamide]"
4,900 nM,"COc1cc(C(=O)N2CCC[C@@H](N)C2)cn2nc(-c3cc4ccc(-c5cccc(CNC(C)=O)c5)cc4n3CC3CC3)c(C)c12 [Example 232, N-{[3-(2-{6-[(3R)-3-Aminopiperidine-1-carbonyl]-4-methoxy-3-methylpyrazolo[1,5-a]pyridin-2-yl}-1-(cyclopropylmethyl)-1H-indol-6-yl)phenyl]methyl}acetamide]"
5,420 nM,"COc1cc(C(=O)N2CCC[C@@H](N)C2)cn2nc(-c3cc4ccc(-c5cccc6[nH]ncc56)cc4n3CC3CC3)c(C)c12 [Example 238, (3R)-1-{2-[1-(Cyclopropylmethyl)-6-(1H-indazol-4-yl)-1H-indol-2-yl]-4-methoxy-3-methylpyrazolo[1,5-a]pyridine-6-carbonyl}piperidin-3-amine]"
6,250 nM,"COc1cc(C(=O)N2CCC[C@@H](N)C2)cn2nc(-c3cc4ccc(-c5ccccc5C(N)=O)cc4n3CC3CC3)c(C)c12 [Example 237, 2-(2-{6-[(3R)-3-Aminopiperidine-1-carbonyl]-4-methoxy-3-methylpyrazolo[1,5-a]pyridin-2-yl}-1-(cyclopropylmethyl)-1H-indol-6-yl)benzamide]"
7,80 nM,"COc1cc(C(=O)N2C[C@H](N)C[C@@H](F)C2)cn2nc(-c3cc4ccc(-c5cc(F)c6[nH]c(=O)ccc6c5C)cc4n3CC3CC3)c(C)c12 [Example 225, 6-(2-{6-[(3R,5R)-3-Amino-5-fluoropiperidine-1-carbonyl]-4-methoxy-3-methylpyrazolo[1,5-a]pyridin-2-yl}-1-(cyclopropylmethyl)-1H-indol-6-yl)-8-fluoro-5-methyl-1,2-dihydroquinolin-2-one]"
8,50 nM,"COc1cc(C(=O)N2C[C@H](N)C[C@@H](F)C2)cn2nc(-c3cc4ccc(-c5ccc(NC(C)=O)nc5)cc4n3CC3CC3)c(C)c12 [Example 226, N-[5-(2-{6-[(3R,5R)-3-Amino-5-fluoropiperidine-1-carbonyl]-4-methoxy-3-methylpyrazolo[1,5-a]pyridin-2-yl}-1-(cyclopropylmethyl)-1H-indol-6-yl)pyridin-2-yl]acetamide]"
